Laboratory results from ChEMBL document CHEMBL1201862, “PubChem BioAssay data set” (2004).
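Compound exposure: 48 hours, 5 concentrations, 96-well plates. Here, GI50 denotes the concentration required for 50% inhibition of growth.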 Activity calls are given as the source filed them. Cut-off read from the data, not from the text of the source: active = GI50 up to about 1.1 µM and inactive = higher.

Tests used:
Assay in all cases: growth of human tumour cells (NCI), 48 h
EKVX = tested on: EKVX
HOP-62 = tested on: HOP-62
MOLT-4 = tested on: MOLT-4
K562 = tested on: K562
CAKI-1 = tested on: CAKI-1
HCC 2998 = tested on: HCC 2998
TK-10 = tested on: TK-10
SW-620 = tested on: SW-620
SK-MEL-28 = tested on: SK-MEL-28
IGROV-1 = tested on: IGROV-1
NCI-H23 = tested on: NCI-H23
SK-MEL-2 = tested on: SK-MEL-2
HCT-15 = tested on: HCT-15
OVCAR-8 = tested on: OVCAR-8
COLO 205 = tested on: COLO 205

Structure (SMILES)	GI50 (EKVX)	GI50 (HOP-62)	GI50 (MOLT-4)	GI50 (K562)	GI50 (CAKI-1)	GI50 (HCC 2998)	GI50 (TK-10)	GI50 (SW-620)	GI50 (SK-MEL-28)	GI50 (IGROV-1)	GI50 (NCI-H23)	GI50 (SK-MEL-2)	GI50 (HCT-15)	GI50 (OVCAR-8)	GI50 (COLO 205)
N#[N+]c1ccccc1Sc1ccc(Cl)cc1	> 100 µM (inactive)	40.4 µM (inactive)	64.7 µM (inactive)	75 µM (inactive)	> 100 µM (inactive)	> 100 µM (inactive)	> 100 µM (inactive)	> 100 µM (inactive)	> 100 µM (inactive)	82.8 µM (inactive)	47.8 µM (inactive)	> 100 µM (inactive)	> 100 µM	> 100 µM (inactive)	–
C[C@]12CC(C=O)C(=O)C(O)=C1CC[C@@H]1C2CC[C@@]2(C)C1CC[C@]2(C)O (some centres undefined)	31.8 µM (inactive)	22.1 µM (inactive)	22.3 µM (inactive)	25.9 µM (inactive)	–	10.1 µM (inactive)	38.9 µM (inactive)	34.3 µM (inactive)	25.8 µM (inactive)	19.2 µM (inactive)	21.7 µM (inactive)	5.02 µM (inactive)	23 µM	28.8 µM (inactive)	18.8 µM (inactive)
COC(=O)C12C3C4C1C1C2C3C41I (centres undefined)	> 100 µM (inactive)	> 100 µM (inactive)	> 100 µM (inactive)	> 100 µM (inactive)	> 100 µM (inactive)	> 100 µM (inactive)	> 100 µM (inactive)	> 100 µM (inactive)	> 100 µM (inactive)	> 100 µM (inactive)	> 100 µM (inactive)	–	> 100 µM	> 100 µM (inactive)	> 100 µM (inactive)
CCn1c(=O)c2ccccc2n2c(=O)c3cc4ccccc4cc3nc12	> 100 µM (inactive)	96.8 µM (inactive)	> 100 µM (inactive)	> 100 µM (inactive)	> 100 µM (inactive)	> 100 µM (inactive)	> 100 µM (inactive)	> 100 µM (inactive)	–	> 100 µM (inactive)	> 100 µM (inactive)	> 100 µM (inactive)	> 100 µM	52.2 µM (inactive)	> 100 µM (inactive)
CC(C)N1CCC2(CC1)NNc1ncccc1-n1cccc12	> 100 µM (inactive)	> 100 µM (inactive)	> 100 µM (inactive)	> 100 µM (inactive)	> 100 µM (inactive)	> 100 µM (inactive)	> 100 µM (inactive)	> 100 µM (inactive)	> 100 µM (inactive)	–	> 100 µM (inactive)	> 100 µM (inactive)	> 10 µM	> 100 µM (inactive)	> 100 µM (inactive)
CC(C)(C)OC(=O)N1CC(C)(C)N2C(=O)C3(CCCO3)C12 (centres undefined)	> 100 µM (inactive)	> 100 µM (inactive)	> 100 µM (inactive)	58.9 µM (inactive)	> 100 µM (inactive)	> 100 µM (inactive)	> 100 µM (inactive)	14.9 µM (inactive)	> 100 µM (inactive)	> 100 µM (inactive)	> 100 µM (inactive)	> 100 µM (inactive)	> 100 µM	> 100 µM (inactive)	> 100 µM (inactive)
CC(=O)NC1=C(NCC(C)C)C(=O)c2ccccc2C1=O	25 µM (inactive)	89.5 µM (inactive)	29.4 µM (inactive)	15.3 µM (inactive)	16.7 µM (inactive)	> 100 µM (inactive)	20.7 µM (inactive)	16.5 µM (inactive)	17.1 µM (inactive)	43.5 µM (inactive)	20 µM (inactive)	26 µM (inactive)	17.7 µM	22.1 µM (inactive)	> 100 µM (inactive)
NCCCSCC(=O)O	> 100 µM (inactive)	–	> 100 µM (inactive)	> 100 µM (inactive)	> 100 µM (inactive)	> 100 µM (inactive)	> 100 µM (inactive)	> 100 µM (inactive)	> 100 µM (inactive)	> 100 µM (inactive)	> 100 µM (inactive)	> 100 µM (inactive)	> 100 µM	> 100 µM (inactive)	> 100 µM (inactive)
